Earlier results, collected in patent US11744878B2 (priority 2020, dated 2023).
Where no end group is shown, it is not given here.

Columns and labels:
COVID-19 = conditions: most critically ill patients with COVID-19; cited from earlier work
SARS coronavirus = conditions: cited from earlier work
pancreas = conditions: cited from earlier work
[1] = in vivo; cited from earlier work

For `CC[C@H](C)[C@H](NC(=O)[C@H](CO)NC(=O)[C@H](CC(N)=O)NC(=O)[C@H](CC(C)C)NC(=O)[C@H](Cc1ccc(O)cc1)NC(=O)[C@H](CCCCN)NC(=O)[C@H](CCCCN)NC(=O)[C@@H](NC(=O)[C@H](C)NC(=O)[C@H](CCSC)NC(=O)[C@H](CCC(N)=O)NC(=O)[C@H](CCCCN)NC(=O)[C@H](CCCNC(=N)N)NC(=O)[C@H](CC(C)C)NC(=O)[C@H](CCCNC(=N)N)NC(=O)[C@@H](NC(=O)[C@H](Cc1ccc(O)cc1)NC(=O)[C@H](CC(N)=O)NC(=O)[C@H](CC(=O)O)NC(=O)[C@@H](NC(=O)[C@H](Cc1ccccc1)NC(=O)[C@@H](NC(=O)[C@H](C)NC(=O)[C@H](CC(=O)O)NC(=O)[C@H](CO)NC(=O)[C@@H](N)Cc1c[nH]cn1)C(C)C)[C@@H](C)O)[C@@H](C)O)C(C)C)C(=O)N[C@@H](CC(C)C)C(=O)N[C@@H](CC(N)=O)C(N)=O` [RLF-100, aviptadil], the “recovery from respiratory failure” value (COVID-19) is listed as “rapid recovery from respiratory failure” and the “replication of the SARS coronavirus” value (SARS coronavirus) is listed as “blocked replication”.
For “secretin (HSDGTFTSELSRLRDSARLQRLLQGLV; not fully specified (C-terminus); ends and bridges not checked; UniProt P63298 33-59, looked up)”, the pancreatic duct diameter (pancreas; in vivo) is given as “increases the pancreatic duct diameter”, the “sphincter of Oddi” value (pancreas; in vivo) is given as “causes sphincter of Oddi relaxation” and the “volume and bicarbonate content of pancreatic juice” value (pancreas; primary action) is given as “increase the volume and bicarbonate content”. The “crossing of the blood-brain barrier” value [1] was “rapidly crosses the blood-brain barrier” and the “distribution in the body” value [1] was “highly and rapidly distributed”.
In the case of “synthetic porcine secretin: new synthetic porcine secretin, manufactured by ChiRhoClin, Inc. (HSDGTFTSELSRLRDSARLQRLLQGLV; not fully specified (C-terminus); ends and bridges not checked; UniProt P63298 33-59, looked up)”, the “effectiveness as a pancreatic secretagogue” value (pancreas; compared with secretin extracted from porcine duodenum) is given as “equally effective”.
